Test results as given in PubChem BioAssay (NCI).
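1) Cells in 96-well plates. 2) Compound, 48 h, 5 concentrations. 3) Linear interpolation between surrounding doses. 4) Unreached endpoint = highest concentration. Here, GI50 denotes the concentration required for 50% inhibition of growth. TGI is the concentration that stops growth completely.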

Legend:
Assay in all cases: NCI anticancer screen, dose series, 48 h
[1] = system: CAKI-1 renal
[2] = system: DU-145 prostate
[3] = system: HCC-2998 colon
[4] = system: HCT-15 colon
[5] = system: HOP-92 NSCLC
[6] = system: HS 578T breast
[7] = system: HT29 colon
[8] = system: IGROV1 ovarian
[9] = system: MALME-3M melanoma
[10] = system: MDA-N
[11] = system: MOLT-4 leukemia
[12] = system: NCI-H23 lung
[13] = system: NCI/ADR-RES ovarian
[14] = system: OVCAR-5 ovarian
[15] = system: PC-3 prostate
[16] = system: SNB-75 CNS
[17] = system: SR leukemia
[18] = system: U251 CNS

| SMILES | TGI [1] [µM] | TGI [2] [µM] | TGI [3] [µM] | TGI [4] [µM] | TGI [5] [µM] | TGI [6] [µM] | TGI [7] [µM] | TGI [8] [µM] | TGI [9] [µM] | TGI [10] [µM] | TGI [11] [µM] | TGI [12] [µM] | TGI [13] [µM] | TGI [14] [µM] | TGI [15] [µM] | TGI [16] [µM] | TGI [17] [µM] | TGI [18] [µM] | GI50 [5] [µM] | GI50 [6] [µM] |
| --- | --- | --- | --- | --- | --- | --- | --- | --- | --- | --- | --- | --- | --- | --- | --- | --- | --- | --- | --- | --- |
| NC(=O)C[C@H](NC(=O)C1(NC(=O)[C@H](Cc2ccc(CP(=O)(O)O)cc2)NC(=O)C(=O)O)CCCCC1)C(=O)NCCCc1cccc2ccccc12 | > 10 | > 10 | > 10 | > 10 | > 10 | > 10 | > 10 | > 10 | > 10 | > 10 | > 10 | > 10 | > 10 | > 10 | > 10 | > 10 | 7.86 | > 10 | – | – |
| NC(=O)c1ncn2c(=O)n(CCl)nnc12 | > 100 | > 100 | > 100 | > 100 | > 100 | > 100 | > 100 | > 100 | > 100 | > 100 | > 100 | > 100 | > 100 | > 100 | > 100 | > 100 | > 100 | > 100 | – | – |
| C[C@]12CC[C@H](O)CC1=CC[C@@H]1[C@@H]2CC[C@]2(C)c3nc(Cl)ccc3C[C@@H]12 | > 100 | > 100 | > 100 | > 81.3 | > 100 | > 100 | > 100 | > 100 | > 100 | > 100 | > 100 | > 100 | > 100 | > 100 | > 100 | 46.8 | > 100 | > 100 | – | – |
| O=[N+]([O-])c1ccc2nc(/C=C(\O)c3ccccc3)c(/C=C(\O)c3ccccc3)nc2c1 | > 79 | > 91 | > 100 | > 100 | 5.63 | 48.6 | > 100 | > 56.4 | > 100 | > 100 | 40.5 | > 60.4 | > 89 | > 100 | > 100 | 32.1 | > 94.9 | 22.9 | 0.195 | 6.83 |
